Laboratory results: patent publication US20140135359A1, “METHODS OF DESIGNING, PREPARING, AND USING NOVEL PROTONOPHORES” (priority 2012, published 2014)

Assays:
[1] = tested on: isolated rat liver mitochondria; experiment: Uncoupling activity: increase in basal (state 4) oxygen consumption by oxygraphy; type: biochemical; settings: for Measured Uncoupling Activity (% uncoupling ± SEM @ 100 μM): Suppl. Table 1, 2-3 mitochondrial preparations; for Uncoupling (%): increase in basal (state 4) oxygen consumption as % of average ADP-stimulated (state 3) rate in vehicle-treated mitochondria; for Measured Uncoupling (% uncoupling ± SEM @ 100 μM): Table 1A, relative to ADP-stimulated respiration = 100%
[2] = tested on: isolated rat liver mitochondria; experiment: Residual functional capacity / inhibitory effect on ADP-stimulated (state 3) oxygen consumption; type: biochemical; settings: for inhibitory effect on oxidative phosphorylation: 50 μM (FIG. 19); for Residual capacity (%): functional capacity (state 3 minus state 4 rate) as % of vehicle-treated mitochondria
[3] = tested on: glucose-6-phosphatase (G6Pase) activity in H4IIE hepatocytes; experiment: Glucose-6-phosphatase activity in H4IIE hepatocytes; type: cell-based, murine; settings: 16 h; for suppression of G6Pase activity: 12.5 μM, result in words; for increase in G6Pase activity: 1 μM
Description: 2.4 Glucose-6-phosphatase activity in H4IIE hepatocytes: H4IIE murine hepatocytes (American Type Culture Collection) were cultured to confluence in 12-well plates in DMEM supplemented with 10% FBS and antibiotics. […] Effects of test compounds on cellular viability were assessed by measuring the release of lactate dehydrogenase (LDH) into the culture medium at the end of a 16 h treatment using a commercial kit (Cytotoxicity Detection Kit; Roche Diagnostics; Laval, QC) as per the manufacturer's instructions; LDH release was expressed as % of total (medium+lysate) LDH content for each well. Cells were also routinely inspected for abnormal morphology by phase-contrast microscopy at the conclusion of the treatment period. Following treatment, cells were washed in HEPES-buffered saline (10 mM HEPES, pH 7.4, 150 mM NaCl) at 37° C. Glucose-6-phosphatase (G6Pase) activity was assessed by measuring the rate of glucose formation in the presence of a non-limiting amount of glucose-6-phosphate (G6P), as done by others [39B, 40B]. Glucose production was measured with a commercial glucose assay kit (AutoKit Glucose; Wako Diagnostics; Richmond, Va.). Two hundred μl of AutoKit Glucose buffer solution diluted 1:4 in water were added to each well. Cells were then lysed by the addition of 50 μl of 0.05% Triton X-100 in similarly diluted AutoKit Glucose buffer solution. […] At 37° C., after which time 500 μl of AutoKit Glucose color reagent were added and incubation was continued for exactly 5 min. Samples were then rapidly transferred to microcentrifuge tubes. Fifty μl were removed for assay of total protein content in order to account for effects of test compounds on cellular viability or proliferation [41B]. A commercial protein assay kit based on the Bradford method was used (Protein Assay; Bio-Rad Laboratories; Hercules, Calif.). […] The remaining volume was centrifuged at 3000×g for 5 min. Absorbance of the supernatant was measured at 505 nm at ambient temperature and glucose concentration was calculated from a standard curve performed in parallel. Control wells without exogenous G6P were included on each plate for each treatment condition and activity measured from these wells was subtracted from activity measured in the presence of exogenous G6P. G6Pase activity calculated in this way was then expressed normalized to protein content on a well-by-well basis. Two independent experiments in cells of different passages were performed for each of the selected test compounds, with four to six replicates per condition per experiment.
Protocol for assay of glucose-6-phosphatase activity in H4IIE or other hepatocytes: H4IIE murine hepatocytes (American Type Culture Collection) may be cultured to confluence in 12-well plates in Dulbecco's modified Eagle's medium (DMEM) supplemented with 10% fetal bovine serum (FBS), and antibiotics. […] Effects of test compounds on cellular viability may be assessed by measuring the release of lactate dehydrogenase (LDH) into the culture medium at the end of a 16 hour treatment using a commercial kit (e.g., Cytotoxicity Detection Kit; Roche Diagnostics; Laval, QC) as per the manufacturer's instructions; LDH release may be expressed as % of total (i.e., medium+lysate) LDH content for each well. Cells may also be routinely inspected for abnormal morphology by phase-contrast microscopy at the conclusion of the treatment period. Following treatment, cells may be washed in HEPES-buffered saline (10 mM HEPES, pH 7.4, 150 mM NaCl) at 37° C. Glucose-6-phosphatase (G6Pase) activity may be assessed by measuring the rate of glucose formation in the presence of a non-limiting amount of glucose-6-phosphate (G6P). Glucose production may be measured with a commercial glucose assay kit (e.g., AutoKit Glucose; Wako Diagnostics; Richmond, Va.). Two hundred μl of AutoKit Glucose buffer solution diluted 1:4 in water may be added to each well.

[4] = tested on: C2C12 myotubes; experiment: Morphology / monolayer detachment inspection of treated myotubes; type: cell-based, murine; settings: 100 μM, 18 h
Description: 2.3 ^3H-deoxyglucose uptake in C2C12 myotubes: Cell culture and the ^3H-deoxyglucose uptake assay were performed as previously described [34B, 35B, 37B]. Briefly, C2C12 murine skeletal myoblasts (American Type Culture Collection; Manassas, Va.) were cultured under standard conditions in 12-well plates. Cells were proliferated to 80% confluence in high-glucose Dulbecco's modified Eagle's medium (DMEM; Wisent; St-Bruno, QC) supplemented with 10% fetal bovine serum (FBS; Wisent), 10% horse serum (HS), and antibiotics. Differentiation into multinucleated myotubes was then promoted with DMEM supplemented with 2% HS and antibiotics. All uptake assays were performed on 7-day differentiated cells, and treatments were timed accordingly. […] DMSO concentration was fixed at 0.1% for all conditions. Cells were routinely inspected for abnormal morphology by phase-contrast microscopy at the conclusion of the treatment period. […] Cells were then washed twice in glucose-free KPB at 37° C. before incubation for exactly 10 min at 37° C. in glucose-free KPB containing 0.5 μCi/ml 2-deoxy-D-[1-^3H]glucose (Amersham Biosciences; Buckinghamshire, UK). Cells were then placed on ice and immediately washed three times with ice-cold KPB. Cells were inspected for monolayer detachment and lysed in 0.1 N NaOH with scraping. […]

[5] = tested on: differentiated C2C12 skeletal muscle cells; experiment: 3H-deoxyglucose uptake in C2C12 myotubes; type: cell-based, murine; settings: 18 h
Description: 2.3 ^3H-deoxyglucose uptake in C2C12 myotubes: Cell culture and the ^3H-deoxyglucose uptake assay were performed as previously described [34B, 35B, 37B]. Briefly, C2C12 murine skeletal myoblasts (American Type Culture Collection; Manassas, Va.) were cultured under standard conditions in 12-well plates. Cells were proliferated to 80% confluence in high-glucose Dulbecco's modified Eagle's medium (DMEM; Wisent; St-Bruno, QC) supplemented with 10% fetal bovine serum (FBS; Wisent), 10% horse serum (HS), and antibiotics. Differentiation into multinucleated myotubes was then promoted with DMEM supplemented with 2% HS and antibiotics. All uptake assays were performed on 7-day differentiated cells, and treatments were timed accordingly. […] DMSO concentration was fixed at 0.1% for all conditions. Cells were routinely inspected for abnormal morphology by phase-contrast microscopy at the conclusion of the treatment period. […] Cells were then washed twice in glucose-free KPB at 37° C. before incubation for exactly 10 min at 37° C. in glucose-free KPB containing 0.5 μCi/ml 2-deoxy-D-[1-^3H]glucose (Amersham Biosciences; Buckinghamshire, UK). Cells were then placed on ice and immediately washed three times with ice-cold KPB. Cells were inspected for monolayer detachment and lysed in 0.1 N NaOH with scraping. […] Three independent experiments of 18 h treatment duration were performed for each of the selected test compounds, with three replicates per condition per experiment. Vehicle-control and 50 μM 2,4-dinitrophenol conditions were included on every plate. Some compounds were also tested at 50 μM under the following conditions: a 15 h treatment with vehicle only followed by a 3 h treatment with the test compound; a 15 h treatment with the test compound followed by a 3 h repeat treatment.
Protocol for ^3H-deoxyglucose uptake assay in C2C12 or other skeletal muscle cells; C2C12 murine skeletal myoblasts (American Type Culture Collection; Manassas, Va.) may be cultured under standard conditions in 12-well plates. Cells may be proliferated to 80% confluence in high-glucose Dulbecco's modified Eagle's medium (DMEM) supplemented with 10% fetal bovine serum (FBS), 10% horse serum (HS), and antibiotics. Differentiation into multinucleated myotubes may be then promoted with DMEM supplemented with 2% HS and antibiotics. All uptake assays may be performed on 7-day differentiated cells, and treatment onset may be timed accordingly. Cells may be treated with reference substances (such as metformin (100 or 400 μM), phenformin (100 μM), or 2,4-dinitrophenol 10-100 μM), compounds described herein, or vehicle (DMSO) in complete differentiation medium. DMSO concentration may be fixed at 0.1% for all conditions. Cells may be routinely inspected for abnormal morphology by phase-contrast microscopy at the conclusion of the treatment period. […] Cells may be then washed twice in glucose-free KPB at 37° C. before incubation for exactly 10 min at 37° C. in glucose-free KPB containing 0.5 μCi/ml 2-deoxy-D-[1-3H]glucose (Amersham Biosciences; Buckinghamshire, UK). Cells may be then placed on ice and immediately washed three times with ice-cold KPB. Cells may be inspected for monolayer detachment and lysed in 0.1 N NaOH with scraping. […] Three or more independent experiments of 18 hours treatment duration may be performed for each test compound, with three or more replicates per condition per experiment. Vehicle-control and 2,4-dinitrophenol conditions may be included on every plate for the purpose of standardizing.

## O=C(/C=C/c1ccccc1)c1ccccc1 [chalcone]
[1]; 50 μM in 0.1% DMSO (FIG. 19)
  uncoupling activity: devoid of uncoupling activity
[1]; 100 μM, result in words
  uncoupling activity: inactive
[1]; 100 μM
  Measured Uncoupling Activity (% uncoupling ± SEM @ 100 μM): −6 ± 0 % uncoupling
[1]; test conc. 100 μM
  Uncoupling (%): −6 ± 0%
[2]
  inhibitory effect on oxidative phosphorylation: small inhibitory effect
[2]; screening at 100 μM
  inhibition of ADP-stimulated oxygen consumption: inhibitory activity
[2]; test conc. 100 μM
  Inhibitory effect (%): 65%
  Residual capacity (%): 35 ± 5%
[3]
  suppression of G6Pase activity: did not suppress G6Pase activity

## O=c1c(O)c(-c2ccc(O)cc2)oc2cc(O)cc(O)c12 [kaempferol]
[1]; 100 μM
  Measured Uncoupling Activity (% uncoupling ± SEM @ 100 μM): 25 ± 2 % uncoupling
[1]; test conc. 25 μM
  Uncoupling (%): 10 ± 1%
[1]; test conc. 100 μM
  Uncoupling (%): 25 ± 2%
[2]; test conc. 25 μM
  Inhibitory effect (%): 28%
  Residual capacity (%): 62 ± 5%
[2]; test conc. 100 μM
  Inhibitory effect (%): 47%
  Residual capacity (%): 28 ± 4%
[4]
  indications of cytotoxicity: decreased uptake relative to vehicle-control levels

## O=C(/C=C/c1ccc(O)cc1)c1ccc(O)cc1O [isoliquiritigenin]
[1]; 100 μM, result in words
  uncoupling activity: complete uncoupling
[1]; 100 μM
  Measured Uncoupling Activity (% uncoupling ± SEM @ 100 μM): 108 ± 7 % uncoupling
  Measured Uncoupling (% uncoupling ± SEM @ 100 μM): >100 % uncoupling
[1]; test conc. 25 μM
  Uncoupling (%): 24 ± 3%
[1]; test conc. 100 μM
  Uncoupling (%): 108 ± 7%
[2]; test conc. 25 μM
  Inhibitory effect (%): 11%
  Residual capacity (%): 65 ± 6%
[2]; test conc. 100 μM
  Inhibitory effect (%): 0%
  Residual capacity (%): 0 ± 0%
[3]
  suppression of G6Pase activity: exceeding the effect of metformin at 400 μM

## COc1cc(/C=C/C(=O)CC(=O)/C=C/c2ccc(O)c(OC)c2)ccc1O [curcumin]
[1]; test conc. 25 μM
  Uncoupling (%): 42 ± 8%
[1]; test conc. 100 μM
  Uncoupling (%): 79 ± 6%
[2]; test conc. 25 μM
  Inhibitory effect (%): 17%
  Residual capacity (%): 41 ± 9%
[2]; test conc. 100 μM
  Inhibitory effect (%): 21%
  Residual capacity (%): 0 ± 0%
[4]
  indications of cytotoxicity: increased susceptibility to monolayer detachment

## [H]/N=C(/N)N/C(=N/[H])NCCc1ccccc1 [phenformin]
[5]; 100 μM
  increase in basal glucose uptake: 48%

## C[C@@H]1C[C@H]2[C@@H]3CCC4=CC(=O)C=C[C@]4(C)[C@@]3(F)[C@@H](O)C[C@]2(C)[C@@]1(O)C(=O)CO [dexamethasone]
[3]
  increase in G6Pase activity: 56%
[3]; listed as Dexamethasone
  increase in G6Pase activity: 56±10%

## O=C(/C=C/c1ccc(O)c(O)c1)c1ccc(O)cc1O [butein]
[1]; 50 μM in 0.1% DMSO (FIG. 19)
  uncoupling activity: partial uncoupling
[1]; 100 μM
  Measured Uncoupling Activity (% uncoupling ± SEM @ 100 μM): 71 ± 4 % uncoupling
  Measured Uncoupling (% uncoupling ± SEM @ 100 μM): 71 ± 4 % uncoupling
[1]; test conc. 25 μM
  Uncoupling (%): 26 ± 4%
[1]; test conc. 100 μM
  Uncoupling (%): 71 ± 4%
[5]; at ⅛th of metformin's concentration (400 μM)
  increase in basal glucose uptake: 269%
[5]; metformin 400 μM
  effect on basal glucose uptake relative to metformin: more than 6 fold
[2]
  inhibitory effect on oxidative phosphorylation: inhibition of ADP-stimulated consumption
[2]; test conc. 25 μM
  Inhibitory effect (%): 23%
  Residual capacity (%): 51 ± 12%
[2]; test conc. 100 μM
  Inhibitory effect (%): 29%
  Residual capacity (%): 0 ± 0%
[3]
  suppression of G6Pase activity: exceeding the effect of metformin at 400 μM

## Oc1cc(O)cc(/C=C/c2ccccc2)c1 [trans-pinosylvin, pinosylvin]
[1]; 100 μM
  Measured Uncoupling Activity (% uncoupling ± SEM @ 100 μM): 3 ± 3 % uncoupling
[1]; test conc. 25 μM
  Uncoupling (%): 0 ± 1%
[1]; test conc. 100 μM
  Uncoupling (%): 3 ± 3%
[2]; test conc. 25 μM
  Inhibitory effect (%): 20%
  Residual capacity (%): 80 ± 13%
[2]; test conc. 100 μM
  Inhibitory effect (%): 34%
  Residual capacity (%): 63 ± 4%

## Oc1ccc(O)cc1 [hydroquinone]
[1]; 100 μM
  Measured Uncoupling Activity (% uncoupling ± SEM @ 100 μM): 0 ± 1 % uncoupling
[1]; test conc. 100 μM
  Uncoupling (%): 0 ± 1%
[2]; test conc. 100 μM
  Inhibitory effect (%): 10%
  Residual capacity (%): 90 ± 8%

## CN(C)C(=N)N=C(N)N [metformin]
[5]; 400 μM
  increase in basal glucose uptake: 43%
[3]; 400 μM
  suppression of G6Pase activity per mg total protein: 56%
